# Source: patent US20030157708A1, “Cell stimulation apparatus and a cell stimulation method” (priority 2001, published 2003)
# Key:
# Type in all cases: cell-based, mice
# [1] = test system: GABAA receptor β2 subunit; conditions: 7DIV granule cells, FIG. 10C; MK801 25 μM, CNQX 10 μM
# cultured granule cells = assay: Release of NRG into conditioned media, read by CREB-phosphorylation of granule cells; conditions: living cultured granule cells
# Protocol: In D, using cerebellar granule cells, CREB-phosphorylation was checked after the conditioned medium stimulation. Serum-starved cerebellar granule cells were treated (for 5 to 10 minutes) with conditioned media collected from pontine nuclus neuron and granule cell cultures. The conditioned media from pontine nuclei neurons was used for stimulation in a, b and c. In d, e and f, conditioned media were prepared from granule cell culture.
# To detect CREB phosphorylation, 7DIV cultured granule cells were fixed with 4% paraformaldehyde for 10 minutes after conditioned media stimulation for 10 to 15 minutes, and stained with a polyclonal anti-NRG β1 antibody, a polyclonal anti-PCREB antibody (BioLabs). […] Alexa™ dyes (Molecular probe) were used as a secondary antibody.
# The soluble forms released by PMA stimulation (60 minutes) were enriched using a spin column and added into the cultured granule cells. The stimulated granule cells were stained with anti-phospho-CREB antibody after fixation. The conditioned media from the pontine nuclei neurons was used for stimulation (a, b and c) and that from granule cell cultures for stimulation (d, e and f). […] The conditioned media (c and f) should have contained cleaved endogenous and recombinant NRG The subtraction of b from c and e from f indicated CREB-phosphorylation induced by sNRG that was from recombinant mNRG. […]
# [2] = test system: NMDA receptor NR2C subunit; conditions: 7DIV granule cells, MK801 25 μM
# ErbB4 = ErbB4 tyrosine-phosphorylation activity of conditioned media (immunoprecipitation / anti-phosphotyrosine blot); conditions: PMA stimulation for 60 minutes
# Protocol: In B, pontine nuclei neurons and granule cells with and without transfection of the transmembrane form of NRG were prepared and stimulated by PMA for 60 minutes and then the conditioned media were collected. Tyrosin-phosphorylation activity of the conditioned media was examined using cerebellar granule cells. The granule cell cultures were stimulated for 5 to 10 minutes with the conditioned media that were collected and concentrated. Lysates from granule cells were resolved by SDS-PAGE, and the blot was probed with an anti-phosphotyrosine antibody (4G10) after immunoprecipitation with anti-ErbB4 antibody. Tyrosine-phosphorylated bands of 180 kD were observed by stimulation (B). The conditioned media were collected from PN(non-transfected pontine neuclei neurons), tPN(transfected pontine neuclei neurons), GC(non-transfected granule cells), and tGC(transfected-granule cells). The result is summarized in C. The experiments were repeated independently three or four times.
# After electrical stimulation (1 mA, 30˜60V outside the cells) for 30 minutes on […] cells which were transfected with recombinant full length mNRG, the conditioned media obtained from the cells were collected and concentrated using centricon 10 and 100 (Millipore) to cut off large (>100 kd) and small (<10 kd) molecular weight proteins. […]
smiles,measurement,setting,value
N#Cc1cc2[nH]c(=O)c(=O)[nH]c2cc1[N+](=O)[O-] [CNQX],"β2 transcription at 1.0 and 100 Hz stimulation, block",[1],blocked
[Cl-].[K+] [KC1],release of NRG by stimulation,cultured granule cells,could not be observed
C[C@]12N[C@H](Cc3ccccc31)c1ccccc12 [MK801],"β2 transcription at 1.0 and 100 Hz stimulation, block",[1],blocked
same,"NR2C mRNA increase at 100 Hz (high frequency) stimulation, block","[2]; 30 minutes stimulation, TTX 1 μM, Cd 100 μM, EGTA 1 mM",strongly blocked
same,"NR2C elevated transcription at 1 and 100 Hz, block",[2]; FIG. 10C,strongly blocked
"CCCCCCCCCCCCCC(=O)O[C@@H]1[C@@H](C)[C@@]2(O)[C@@H](C=C(CO)C[C@]3(O)C(=O)C(C)=C[C@@H]23)[C@@H]2C(C)(C)[C@]12OC(C)=O [PMA, phorbol-12-myristate-13-acetate]",Tyrosine-phosphorylated bands of 180 kD with conditioned media from mNRG-transfected neurons,ErbB4,clearly observed
